Measurements taken from US20020045591A1, “Methods and therapeutic compositions for treating cancer” (priority 1998, published 2002).
Non-standard residues stand in square brackets, D forms with d. Residues, ends and D or L forms follow the SMILES beside them. No end group written: not given here. *: point of attachment. Nle = CCCC[C@H](N)C(=O)O; Cbz = O=C(OCc1ccccc1)*

How the values were obtained:
β-catenin [1] = test: β-catenin Western blot in Balb/C 3T3 cells treated with ubiquitin-proteasome inhibitors; assay type: cell-based, mouse; conditions: treated 4 hours, FIG. 17A
Method: (§1) Lactacystin A (dissolved in water at 0.4 mg/ml was used at a final concentration of 4 μg/ml) and MG-132 (used at 10 or 20 μM) were purchased from Calbiochem (La Jolla, Calif.).
Polyacrylamide Gel Electrophoresis and Immunoblotting: Equal amounts of total cell protein were separated by SDS PAGE, electro-transferred to nitrocellulose and incubated with monoclonal antibodies. The antigens were visualized by the enhanced chemiluminescence (Amersham, Buckinghampshire, U.K). In some experiments, cells were fractionated into Triton X-100-soluble and -insoluble fractions. Briefly, cells cultured on 35 mm dishes were incubated in 0.5 ml buffer containing 50 mM MES, pH 6.8, 2.5 mM EGTA, 5 mM MgCl2 and 0.5% Triton-X-100, at room temperature for 3 minutes. The Triton X-100-soluble fraction was removed, and the insoluble fraction was scraped into 0.5 ml of the same buffer. Equal volumes of the two fractions were analyzed by SDS PAGE followed by immunoblotting with the various antibodies.

plakoglobin = test: Plakoglobin Western blot in KTCTL60-PG cells treated with proteasome inhibitor; assay type: cell-based, human; conditions: 10 and 20 μM, FIG. 17B
Method: (§2) Cell Culture and Transfections: Canine kidney epithelial cells MDCK, human fibrosarcoma HT1080, 293-T human embryonic kidney cells, Balb/C mouse 3T3 and human colon carcinoma SW480 cell lines were cultured in Dulbecco's modified Eagle's medium supplemented with 10% calf serum (Gibco, Grand Island, N.Y.) at 37° C. in the presence of 7% CO2. The human renal carcinoma cell line KTCTL60 was grown in RPMI medium and 10% calf serum. Cells were transiently transfected with the cDNA constructs described below, using Ca^2+-phosphate or lipofectamine (Gibco) and the expression of the transgene was assessed between 24 and 48 hours after transfection. In some experiments, the expression of the stably transfected NH2 terminus-deleted β-catenin (Δ57) was enhanced in HT1080 cells by overnight treatment with 2 mM sodium butyrate.
as §1
(§3) Polyacrylamide Gel Electrophoresis and Immunoblotting: Equal amounts of total cell protein were separated by SDS PAGE, electro-transferred to nitrocellulose and incubated with monoclonal antibodies. […] Equal volumes of the two fractions were analyzed by SDS PAGE followed by immunoblotting with the various antibodies.

β-catenin [2] = test: β-catenin Western blot in KTCTL60 cells treated with proteasome inhibitor; assay type: cell-based, human; conditions: 10 and 20 μM, FIG. 17B
Method: as §2, §1, §3

HT1080 cells = test: Butyrate induction in HT1080 cells stably expressing ΔN57 β-catenin; assay type: cell-based, human
Method: as §2, with “In some experiments, the expression of the stably transfected NH2 terminus-deleted β-catenin (Δ57) was enhanced in HT1080 cells by overnight treatment with 2 mM sodium butyrate.” left out
Immunofluorescence Microscopy: Cells cultured on glass coverslips were fixed with 3.7% paraformaldehyde in PBS and permeabilized with 0.5% Triton X-100. […] Images of the fluorescent cells were recorded with a cooled, scientific grade CCD camera (Photometrics, Tucson, Ariz.). Integrated fluorescent intensities in transfected and nontransfected cells were determined, after the background was subtracted.
as §3

[3] = tested on: β-catenin-mediated transactivation; test: TOPFLASH luciferase transactivation in SW480 cells (Example 1); assay type: cell-based, human; conditions: SW480 cells, GFP-fused cadherin tail constructs, FIG. 7C
Method: (§4) Cell culture and transfections: CHO and SW480 human colon carcinoma cells were cultured in Dulbecco's modified Eagle's medium containing 10% fetal calf serum in an 8% CO2 incubator at 37° C. Transfections were performed using Lipofectamine (Gibco, BRL, USA) according to the manufacturer's instructions. Stably transfected CHO clones were generated by co-transfection with a plasmid encoding the puromycin resistance gene. Two days after transfection, cells were replated in the presence of 10 μg/ml puromycin (Sigma, Holon, Israel). Stable clones were isolated 2 weeks later and tested for the expression of the transgene by Western blot analysis.
Transactivation assays: CHO cells were transfected with TOPFLASH or FOPFLASH vectors (van de Wetering et al., 1997, ibid) and with pCDNA3 coding for β-galactosidase to normalize for transfection efficiency. The transfection mixture also contained either β-catenin, LEF-1 or cadherin derivatives in different combinations, as indicated. SW480 cells were transfected with TOPFLASH and cadherin derivatives. After 48 hours, cells were harvested and tested for luciferase and β-galactosidase activities as follows: Cells were washed 5 times with PBS, resuspended in PM-2 buffer (33 mM NaH2PO4, 66 mM Na2HPO4, 0.1 mM MnCl2, 2 mM MgSO4, 40 mM β-mercaptoethanol) and lysed by 5 cycles of freezing and thawing. Aliquots containing equal amounts of protein were incubated with O-Nitrophenyl-β-D-galactopyranoside (ONPG) at 37° C. until a yellow color appeared. The reactions were stopped with 1 M Na2CO3 and the absorbance at 420 nm was determined. Identical aliquots were tested for luciferase activity using luciferine buffer (100 mM Tris-O-Acetate pH 7.8, 10 mM Mg-O-Acetate, 1 mM EDTA, 74 μM luciferine (Boehringer Mannheim, Germany) and 2.22 mM ATP, pH 7.0). The luciferase reaction was monitored by a TD-20e luminometer (Turner, USA) and normalized for the β-galactosidase activity.
Distribution of N-cadherin derivatives and the effect on β-catenin transactivation in SW480 cells: SW480 colon carcinoma cells express mutant APC, low levels of E-cadherin and relatively high levels of free β-catenin. These cells also display very significant β-catenin-mediated transcription after transfection with TOPFLASH (FIG. 6A, lane 1). To determine the effect of cadherin on this β-catenin-driven transactivation, each of the three N-cadherin derivatives was transfected together with TOPFLASH into SW480 cells and luciferase activity determined. […] The most efficient inhibitor of this transactivation was the cadherin tail construct (FIG. 6A, lane 4), which inhibited the reporter gene by more than 85%. Full-length N-cadherin and the IL2R/N-cadherin chimera decreased the activity of the reporter by about 70% and 50%, respectively.

β-catenin [4] = target: T1, β-catenin (Cricetulus griseus, UniProt G3H996); test: β-catenin level in CHO cells by Western blot; assay type: cell-based; conditions: CHO cells transiently transfected with GFP-cadherin constructs, FIG. 7B
T1 construct: resulting from the stabilization of the endogenous β-catenin by the transfected cadherin derivatives; endogenous in cells; host or cells: CHO cells, stably or transiently transfected with cadherin derivatives only
T1 sequence (G3H996 1-781): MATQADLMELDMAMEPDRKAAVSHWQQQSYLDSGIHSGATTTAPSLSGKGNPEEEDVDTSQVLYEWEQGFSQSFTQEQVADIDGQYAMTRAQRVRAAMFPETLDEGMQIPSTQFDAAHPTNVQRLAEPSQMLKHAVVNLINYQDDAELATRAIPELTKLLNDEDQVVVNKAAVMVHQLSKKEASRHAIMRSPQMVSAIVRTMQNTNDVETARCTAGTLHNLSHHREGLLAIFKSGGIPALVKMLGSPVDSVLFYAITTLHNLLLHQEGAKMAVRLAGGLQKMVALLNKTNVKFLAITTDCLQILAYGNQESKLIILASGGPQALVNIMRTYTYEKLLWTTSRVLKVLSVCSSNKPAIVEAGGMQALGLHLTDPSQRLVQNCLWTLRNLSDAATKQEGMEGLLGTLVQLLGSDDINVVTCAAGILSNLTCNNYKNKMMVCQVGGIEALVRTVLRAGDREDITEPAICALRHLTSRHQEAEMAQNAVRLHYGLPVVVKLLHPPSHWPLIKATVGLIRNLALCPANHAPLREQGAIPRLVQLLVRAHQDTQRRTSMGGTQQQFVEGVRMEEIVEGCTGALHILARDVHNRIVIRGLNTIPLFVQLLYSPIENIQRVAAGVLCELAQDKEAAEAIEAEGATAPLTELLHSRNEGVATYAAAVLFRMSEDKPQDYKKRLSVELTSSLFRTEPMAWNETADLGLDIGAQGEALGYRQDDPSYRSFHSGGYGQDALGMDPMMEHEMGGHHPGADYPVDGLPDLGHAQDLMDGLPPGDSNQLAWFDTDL
Method: as §4
Immunoblotting and immunoprecipitation: The following antibodies were used: polyclonal pan-cadherin or monoclonal anti cadherin (CH-19) and polyclonal anti β-catenin antibodies were from Sigma (Holon, Israel). Monoclonal anti β-catenin, 5H10 (from M. Wheelock), anti IL2Rα (from UBI), anti flag (M2, from IBI), anti HA (clone 12CA5, from Boehringer Mannheim, Germany), anti GFP (polyclonal, from Clontech, Palo Alto, Calif.), anti LEF-1 (polyclonal, kindly provided by Dr. R. Grosschedl). Secondary antibodies for Western blotting were goat anti rabbit or anti mouse conjugated to HRP (Amersham, Buckinghampshire, UK), and for immunofluorescence analysis the secondary antibodies were FITC-goat anti mouse (Cappel, USA) or rhodamine-anti rabbit antibodies (from Jackson Immuno-Research, West Grove, Pa.). Cells were harvested in Laemmli's sample buffer and equal amounts of total cell protein from the different clones, or from transient transfections, were separated by SDS-PAGE, electrotransferred to nitrocellulose and incubated with the different antibodies. For immunoprecipitation, cells were harvested in IP buffer (20 mM Tris pH 8.0, 1% Triton X-100, 140 mM NaCl, 10% glycerol, 1 mM EGTA, 1.5 mM MgCl2, 1 mM DTT, 1 mM sodium vanadate, and 50 μg/ml PMSF). Equal amounts (500-700 μg) of cell protein were incubated with 1 μl of the relevant antibody for 2 hours at 4° C., followed by incubation with 20 μl of protein A+G/agarose beads (Santa Cruz Biotechnologies, Santa Cruz, Calif.) for an additional 2 hours at 4° C. The agarose beads were washed with 20 mM Tris pH 8.0, 150 mM NaCl, and 0.5% NP-40, and the immune complexes recovered by boiling in Laemmli's sample buffer and resolved by SDS-PAGE.

CCCC[C@@H](C=O)NC(=O)[C@H](CC(C)C)NC(=O)[C@H](CC(C)C)NC(C)=O [ALLN, N-Acetyl-Leu-Leu-Norleucinal] (Ac-Leu-Leu-[Nle]-aldehyde)
effect on β-catenin (Western blot) (β-catenin [1]): appearance of higher molecular weight β-catenin forms

CC(=O)N[C@@H](CSC(=O)[C@]1([C@@H](O)C(C)C)NC(=O)[C@H](C)[C@@H]1O)C(=O)O [Lactacystin]
effect on β-catenin (Western blot) (β-catenin [1]): appearance of higher molecular weight β-catenin forms

CC(C)C[C@@H](C=O)NC(=O)[C@H](CC(C)C)NC(=O)[C@H](CC(C)C)NC(=O)OCc1ccccc1 [MG-132] (Cbz-Leu-Leu-Leu-aldehyde)
effect on β-catenin (Western blot) (β-catenin [1]): appearance of higher molecular weight β-catenin forms
effect on plakoglobin level (plakoglobin): moderate increase in plakoglobin
effect on β-catenin content (β-catenin [2]): dramatic elevation in β-catenin content

CCCC(=O)[O-].[Na+] [butyrate, sodium butyrate]
β-catenin localization (HT1080 cells; butyrate-treated, FIG. 14D): dramatic translocation of β-catenin into the nucleus
increase in expression of the transgene (western blot) (HT1080 cells; overnight 2 mM sodium butyrate, data not shown): about 2 fold

E30: E-cadherin tail fragment, amino acids 833-862, fused to GFP
inhibition of luciferase activity (LEF-1-driven transactivation) [3]: did not affect β-catenin-mediated transactivation
stabilization of β-catenin against degradation (β-catenin [4]): ineffective in stabilizing β-catenin against degradation

E72: C-terminal 72 amino acids of E-cadherin (813-884) fused to GFP
inhibition of luciferase activity (LEF-1-driven transactivation) [3]: 60%
stabilization of β-catenin against degradation (β-catenin [4]): could also stabilize β-catenin

N30: N-cadherin tail fragment, amino acids 862-891, fused to GFP (LVFDYEGSGSTAGSLSSLNSSSSGGEQDYD; also: fused to GFP)
inhibition of luciferase activity (LEF-1-driven transactivation) [3]: did not affect β-catenin-mediated transactivation
stabilization of β-catenin against degradation (β-catenin [4]): ineffective in stabilizing β-catenin against degradation

N71: C-terminal 71 amino acids of N-cadherin (842-912) fused to GFP
inhibition of luciferase activity (LEF-1-driven transactivation) [3]: 70%
stabilization of β-catenin against degradation (β-catenin [4]): could also stabilize β-catenin
